Measurements from publication PMC9612383, “Biological Activity of NHC-Gold-Alkynyl Complexes Derived from 3-Hydroxyflavones” (Pharmaceutics, 2022).
Like-named read-outs stand apart in the source and are kept apart here.

Legend:
[1] = n-Octanol-water distribution coefficient, shake-flask; assay type: physicochemical; details: for LogP7.4 (distribution coefficient): n-octanol / buffered aqueous solution pH 7.4
Description: The n-octanol-water coefficients of the complexes were determined as previously reported using a shake-flask method. Buffered-saline distilled water (100 mL, phosphate buffer [PO4^3−] = 10 mM, [NaCl] = 0.15 M, pH 7.4) and n-octanol (100 mL) were shaken for 72 h to allow saturation of both phases. Approximately 1 mg of the complexes was dissolved in 5 mL of the aqueous phase and 5 mL of the organic phase were added, mixing for 10 min. The resulting emulsion was centrifuged to separate the phases. The concentration of the compounds in each phase was determined using UV absorbance spectroscopy. LogP was defined as log{[compound(organic)]/[compound(aqueous)]}.

[2] = test system: panel of Gram-positive and Gram-negative strains; assay: Disk diffusion method, whole panel (summary in words); assay type: cell-based; details: for antibacterial effect (in words): whole panel, Gram-positive and Gram-negative strains
Description: (§1) To evaluate the antibacterial potential of gold derivatives, […] bacterial strains were selected: E. coli, P. aeruginosa, S. enterica, E. faecalis, L. monocytogenes, S. epidermidis, S. aureus. Dis diffusion assay was performed following Clinical & Laboratory Standards Institute (CLSI) recommendations. Active cultures (0.5 McFarland) from all strains were spread onto Mueller–Hinton Agar (MHA, Oxoid, Basingstoke, UK) and disks impregnated with 10 µL of each gold complex or control (DMSO for negative control, phenol for positive control) were placed. Plates were and incubated for 22 h ± 2 h at 37 °C ± 1 °C and then the diameter of the inhibition zone was determined.
Given that NHC-gold derivatives might display antibacterial activity, we evaluated the antibacterial effect of the complexes toward a panel of Gram-positive and Gram-negative strains using the disk diffusion method. The selected strains are human pathogen or commensal bacteria and the results are summarized on Table 1.

[3] = test system: Caco-2 cells; assay: MTT antiproliferative assay; assay type: cell-based, Human; details: for IC50: Caco-2 cell line, 72 h incubation, mean ± SE
Description: Human colorectal adenocarcinoma Caco-2 cells were kindly provided by Dr. Edith Brot-Laroche (Universite Pierre et Marie Curie-Paris 6 UMR S872, Les Cordeliers, France) and were maintained in a humidified atmosphere of 5% CO2 at 37 °C in Dulbecco’s Modified Eagles medium (DMEM) (Gibco Invitrogen, Paisley, UK) supplemented with 20% fetal bovine serum, 1% non-essential amino acids, 1% penicillin (1000 U/mL), 1% streptomycin ([…]) and 1% amphotericin (250 U/mL). For treatment, gold complexes were initially dissolved in DMSO to a concentration of 20 mM and then diluted on cell culture without fetal bovine serum to the required work concentrations, which was added 24 h post-seeding. Then, cells were incubated at 37 °C for the required time for each assay.
Cell viability was determined with the 3-(4,5-dimethyl-2-thiazoyl)-2,5-diphenyltetrazolium bromide (MTT) assay as previously described by Mármol et al.. For IC50 calculation, cells were grown in 96-well plates at a density of 4000 cells per well and incubated overnight at standard culture conditions. Then, cells were exposed 72 h to 0–20 μM of each gold complex and changes in absorbance were converted into percentage of growth inhibition in comparison to negative control (DMSO. Absorbance was measured with SPECTROstar Nano (BMG Labtech).

[4] = test system: E. faecalis; assay: Disk diffusion test; assay type: cell-based; details: for Inhibition Zone: complex 5 μg, 24 h incubation, diameter including disk (6 mm)
Description: (§2) To evaluate the antibacterial potential of gold derivatives, six bacterial strains were selected: E. coli, P. aeruginosa, S. enterica, E. faecalis, L. monocytogenes, S. epidermidis, S. aureus. Dis diffusion assay was performed following Clinical & Laboratory Standards Institute (CLSI) recommendations. […] Plates were and incubated for 22 h ± 2 h at 37 °C ± 1 °C and then the diameter of the inhibition zone was determined.

[5] = test system: S. aureus 2593; assay: Disk diffusion test; assay type: cell-based; details: for Inhibition Zone: complex 5 μg, 24 h incubation, diameter including disk (6 mm)
Description: as §2

[6] = test system: P. aeruginosa; assay: Disk diffusion test; assay type: cell-based; details: for Inhibition Zone: complex 5 μg, 24 h incubation, diameter including disk (6 mm)
Description: as §2

[7] = test system: S. aureus 13565; assay: Disk diffusion test; assay type: cell-based; details: for Inhibition Zone: complex 5 μg, 24 h incubation, diameter including disk (6 mm)
Description: as §2

[8] = test system: S. epidermidis; assay: Disk diffusion test; assay type: cell-based; details: for Inhibition Zone: complex 5 μg, 24 h incubation, diameter including disk (6 mm)
Description: as §2

[9] = test system: L. monocytogenes; assay: Disk diffusion test; assay type: cell-based; details: for Inhibition Zone: complex 5 μg, 24 h incubation, diameter including disk (6 mm)
Description: as §2

[10] = test system: E. coli 13216; assay: Disk diffusion test; assay type: cell-based
Description: as §2

[11] = test system: E. coli 8739; assay: Disk diffusion test; assay type: cell-based
Description: as §2

[12] = test system: S. enterica 25928; assay: Disk diffusion test; assay type: cell-based; details: Salmonella enterica, 25928; positive control 5.35 mg, 24 h incubation; diameter including disk (6 mm)
Description: as §1

[13] = test system: S. enterica 14028; assay: Disk diffusion test; assay type: cell-based; details: Salmonella enterica, 14028, 24 h, read-out: Inhibition Zone
Description: as §2

[14] = test system: E. coli 25922; assay: Disk diffusion test; assay type: cell-based; details: Escherichia coli, 25922, 24 h, read-out: Inhibition Zone
Description: as §2

[15] = test system: thioredoxin reductase enzyme; set-up: method as in PMID 31546196; details: earlier work of the authors; cited from earlier work
[16] = test system: Caco-2 cells; set-up: method as in PMID 31546196; details: earlier work of the authors; cited from earlier work
[17] = set-up: method as in PMID 31546196; details: cited from earlier work
[18] = test system: Caco-2 cells; set-up: method as in PMID 31546196; details: cited from earlier work
[19] = complex 5 μg, 24 h incubation, diameter including disk (6 mm)

Cn1cc[n+](C)[c]1[Au-][C]#CCOc1c(-c2ccccc2)oc2ccccc2c1=O [1a, [Au(La)(IMe)] (R = H; IMe = C5H10N2)]
LogP7.4 (distribution coefficient) [1]: 0.34 | antibacterial effect (in words) [2]: no antibacterial effect | IC50 [3]: 43.3 ± 5.06 µM

Cn1cc[n+](C)[c]1[Au-][C]#CCOc1c(-c2ccc(Cl)cc2)oc2ccccc2c1=O [1c, [Au(Lc)(IMe)] (R = Cl; IMe = C5H10N2)]
LogP7.4 (distribution coefficient) [1]: 1.96 | antibacterial effect (in words) [2]: no antibacterial effect | IC50 [3]: 15.1 ± 3.04 µM

COc1ccc(-c2oc3ccccc3c(=O)c2OCC#[C][Au-][c]2n(C)cc[n+]2C)cc1 [1d, [Au(Ld)(IMe)] (R = OMe; IMe = C5H10N2)]
LogP7.4 (distribution coefficient) [1]: 0.22 | antibacterial effect on Gram-negative strains (in words) [2]: inactive against Gram-negative strains | antibacterial effect on Gram-positive strains (in words) [2]: able to inhibit the growth of all Gram-positive bacterial strains | IC50 [3]: 16.3 ± 1.04 µM | Inhibition Zone [4]: 9.47 ± 1.67 mm | Inhibition Zone [5]: 9.70 ± 0.02 mm | Inhibition Zone [6]: - | Inhibition Zone [7]: 11.86 ± 0.20 mm | Inhibition Zone [8]: 17.23 ± 0.87 mm | Inhibition Zone [9]: 14.25 ± 1.06 mm

CC(C)c1cccc(C(C)C)c1-n1cc[n+](-c2c(C(C)C)cccc2C(C)C)[c]1[Au-][C]#CCOc1c(-c2ccccc2)oc2ccccc2c1=O [2a, [Au(La)(IPr)] (R = H; IPr = C27H38N2)]
lipophilic character (in words) ([1]; from log P, pH 7.4): balanced hydrophilic-lipophilic character | LogP7.4 (distribution coefficient) [1]: 0.42 | fold lower IC50 of 2a than homologue 1a ([3]; Caco-2, 72 h, p < 0.05): 2.65 times | IC50 [3]: 16.3 ± 2.04 µM

CC(C)c1cccc(C(C)C)c1-n1cc[n+](-c2c(C(C)C)cccc2C(C)C)[c]1[Au-][C]#CCOc1c(-c2ccc(Br)cc2)oc2ccccc2c1=O [2b, [Au(Lb)(IPr)] (R = Br; IPr = C27H38N2)]
LogP7.4 (distribution coefficient) [1]: 1.47 | antibacterial effect (in words) [2]: able to interfere with the development of both Gram positive and Gram negative strains | IC50 [3]: 53.9 ± 22.7 µM | Inhibition Zone [4]: 12.1 ± 0.99 mm | Inhibition Zone [5]: 12.79 ± 1.11 mm | Inhibition Zone [6]: - | Inhibition Zone [7]: 14.03 ± 0.17 mm | Inhibition Zone [10, 19]: 8.10 ± 0.60 mm | Inhibition Zone [11, 19]: 8.97 ± 0.49 mm | Inhibition Zone [8]: 20.95 ± 0.91 mm | Inhibition Zone [9]: 17.17 ± 0.24 mm

CC(C)c1cccc(C(C)C)c1-n1cc[n+](-c2c(C(C)C)cccc2C(C)C)[c]1[Au-][C]#CCOc1c(-c2ccc(Cl)cc2)oc2ccccc2c1=O [2c, [Au(Lc)(IPr)] (R = Cl; IPr = C27H38N2)]
LogP7.4 (distribution coefficient) [1]: 1.11 | antibacterial effect on Gram-negative strains (in words) [2]: inactive against Gram-negative strains | antibacterial effect on Gram-positive strains (in words) [2]: able to inhibit the growth of all Gram-positive bacterial strains | IC50 [3]: 46.1 ± 22.5 µM | Inhibition Zone [4]: 10.25 ± 1.41 mm | Inhibition Zone [5]: 10.49 ± 1.13 mm | Inhibition Zone [6]: - | Inhibition Zone [7]: 12.19 ± 0.88 mm | Inhibition Zone [8]: 18.06 ± 2.04 mm | Inhibition Zone [9]: 15.33 ± 0.47 mm

COc1ccc(-c2oc3ccccc3c(=O)c2OCC#[C][Au-][c]2n(-c3c(C(C)C)cccc3C(C)C)cc[n+]2-c2c(C(C)C)cccc2C(C)C)cc1 [2d, [Au(Ld)(IPr)] (R = OMe; IPr = C27H38N2)]
LogP7.4 (distribution coefficient) [1]: 3.40 | antibacterial effect (in words) [2]: no antibacterial effect | IC50 [3]: 48.2 ± 14.6 µM

CC(=O)OC[C@H]1O[C@@H]([S-])[C@H](OC(C)=O)[C@@H](OC(C)=O)[C@@H]1OC(C)=O.CCP(CC)CC.[Au+] [Auranofin, 2,3,4,6-tetraacetyl-1-thio-β-D-glucopyranosato-S-triethylphosphane gold(I), reference compound]
LogP7.4 (distribution coefficient) [1]: −2.53 | IC50 [3]: 1.8 ± 0.1 µM

Oc1ccccc1 [Phenol, reference compound]
zone of inhibition at 5350 µg/disc [12]: 19.2 ± 0.42 mm | zone of inhibition at 5350 µg/disc ([4]; Enterococcus faecalis, 24 h, read-out: Inhibition Zone): 13.5 ± 2.12 mm | zone of inhibition at 5350 µg/disc ([5]; Staphylococcus aureus, 2593, 24 h, read-out: Inhibition Zone): 12.1 ± 0.73 mm | zone of inhibition at 5350 µg/disc ([6]; Pseudomonas aeruginosa, 24 h, read-out: Inhibition Zone): 30.5 ± 1.45 mm | zone of inhibition at 5350 µg/disc ([7]; Staphylococcus aureus, 13565, 24 h, read-out: Inhibition Zone): 17.2 ± 3.38 mm | zone of inhibition at 5350 µg/disc [13]: 27.8 ± 1.11 mm | zone of inhibition at 5350 µg/disc ([10]; Escherichia coli, 13216, 24 h, read-out: Inhibition Zone): 20.7 ± 2.97 mm | zone of inhibition at 5350 µg/disc ([11]; Escherichia coli, 8739, 24 h, read-out: Inhibition Zone): 22.7 ± 1.37 mm | zone of inhibition at 5350 µg/disc ([8]; Staphylococcus epidermidis, 24 h, read-out: Inhibition Zone): 22.7 ± 4.49 mm | zone of inhibition at 5350 µg/disc ([9]; Listeria monocytogenes, 24 h, read-out: Inhibition Zone): 16.58 ± 0.12 mm | zone of inhibition at 5350 µg/disc [14]: 23.4 ± 1.26 mm

O=c1c(OCC#[C][Au][PH](c2ccccc2)(c2ccccc2)c2ccccc2)c(-c2ccc(Br)cc2)oc2ccccc12 [[Au(L2b)PPh3]]
thioredoxin reductase inhibition (in words) [15]: able to inhibit thioredoxin reductase enzyme | ROS levels (in words) [16]: induce an increase in ROS levels

O=c1c(OCC#[C][Au][PH](c2ccccc2)(c2ccccc2)c2ccccc2)c(-c2ccc(Cl)cc2)oc2ccccc12 [[Au(L2c)PPh3]]
distribution coefficient value [17]: 1.17 | IC50 [18]: 5.34 ± 0.05 µM

Cn1ccn(C)[c]1=[Au-2][Cl] [[AuCl(IMe)], reference compound]
IC50 [3]: > 100 µM | antiproliferative effect (in words) ([3]; Caco-2 cells): ineffective

CC(C)c1cccc(C(C)C)c1-n1ccn(-c2c(C(C)C)cccc2C(C)C)[c]1=[Au][Cl] [[AuCl(IPr)], reference compound]
IC50 [3]: 9.09 ± 3.22 µM
